According to ChEMBL document CHEMBL3627636, “Novel bivalent inhibitors with sub-nanomolar affinities towards human glyoxalase I” (Bioorg Med Chem Lett, 2015):
In brackets after ≈: the same amount, converted by molar mass.

How the values were obtained:
Lactoylglutathione lyase [1] = molecular target: T1, Lactoylglutathione lyase (Homo sapiens, UniProt Q04760); experiment: Inhibition of 6-His tagged recombinant human glyoxalase 1 transfected in Escherichia coli BL21 (DE3) assessed as S-D-lactoylglutathione formation by spectrophotometer
[2] = Inhibition of yeast glyoxalase 1; design: species or system Saccharomyces cerevisiae
[3] = Solubility of compound; format: physicochemical
[4] = molecular target: Hydroxyacylglutathione hydrolase, mitochondrial (Bos taurus, UniProt Q3B7M2); experiment: Inhibition of bovine liver glyoxalase 2
Lactoylglutathione lyase [5] = molecular target: T1, Lactoylglutathione lyase; experiment: Inhibition of human glyoxalase 1

T1 sequence (Q04760 whole entry): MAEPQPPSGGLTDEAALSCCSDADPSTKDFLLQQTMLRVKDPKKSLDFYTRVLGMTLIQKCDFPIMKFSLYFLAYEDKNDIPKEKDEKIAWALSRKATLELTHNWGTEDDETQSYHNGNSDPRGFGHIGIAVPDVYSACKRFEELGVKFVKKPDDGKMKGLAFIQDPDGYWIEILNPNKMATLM

SMILES | Ki (Lactoylglutathione lyase [1]) | Ki [2] | solubility [3] | Ki [4] | Ki (Lactoylglutathione lyase [5])
O=C(O)CNC(=O)C(CSC(=O)N(O)c1ccc(Br)cc1)NC(=O)CCC(NCCC(=O)OCCNC(=O)CCNC(=O)CC(=O)NCCNC(=O)CC(=O)NCCC(=O)NCCOC(=O)CCNC(CCC(=O)NC(CSC(=O)N(O)c1ccc(Br)cc1)C(=O)NCC(=O)O)C(=O)O)C(=O)O (stereo unspecified) | 0.3 nM | 3700 nM | 32 mg/mL (≈ 19.9 mM) | 81 nM | 
CCOC(=O)CCNC(CCC(=O)NC(CSC(=O)N(O)c1ccc(Cl)cc1)C(=O)NCC(=O)O)C(=O)O (stereo unspecified) |  |  |  |  | 46 nM
CC(=O)CNC(CCC(=O)NC(CSC(=O)N(O)c1ccc(Cl)cc1)C(=O)NCC(=O)O)C(=O)O (stereo unspecified) |  |  |  |  | 130 nM
NCCC(=O)NC(CCC(=O)NC(CSC(=O)N(O)c1ccc(Cl)cc1)C(=O)NCC(=O)O)C(=O)O (stereo unspecified) |  |  |  |  | 330 nM
O=C(O)CNC(=O)C(CSC(=O)N(O)c1ccc(Br)cc1)NC(=O)CCC(NCCC(=O)OCCOCCOCCOCCNC(=O)CCCCCCC(=O)NCCCOCCOCCOCCCNC(=O)CCCCCCC(=O)NCCOCCOCCOCCOC(=O)CCNC(CCC(=O)NC(CSC(=O)N(O)c1ccc(Br)cc1)C(=O)NCC(=O)O)C(=O)O)C(=O)O (stereo unspecified) | 1 nM | 6900 nM | 26 mg/mL (≈ 12.8 mM) | 138 nM | 
